According to article PMC11968843, “Sulphostin-inspired N-phosphonopiperidones as selective covalent DPP8 and DPP9 inhibitors” (Nature Communications, 2025):
Values joined by “and” are separate entries in the source; they are usually repeats but may differ in a detail not shown here. Identical values can stand only once.

Experiments:
Experiment in all cases: Competitive ABPP / direct target identification with alkyne probe 9 in HEK293 cell lysates
Assay type in all cases: binding, H. sapiens
[1] = target: T1, HEK293 cell lysates (proteome-wide targets of probe 9) (Homo sapiens, UniProt P62258); details: protein YWHAE
T1 construct: endogenous in cells; host or cells: HEK293 cell lysate

[2] = target: T2, HEK293 cell lysates (proteome-wide targets of probe 9) (Homo sapiens, UniProt P22626); details: protein HNRNPA2B1;HNRPA2B1
T2 construct: endogenous in cells; host or cells: HEK293 cell lysate

[3] = target: T3, HEK293 cell lysates (proteome-wide targets of probe 9) (Homo sapiens, UniProt Q07020); details: protein RPL18
T3 construct: endogenous in cells; host or cells: HEK293 cell lysate

[4] = target: T4, HEK293 cell lysates (proteome-wide targets of probe 9) (Homo sapiens, UniProt P07437); details: protein TUBB
T4 construct: endogenous in cells; host or cells: HEK293 cell lysate

[5] = target: T5, HEK293 cell lysates (proteome-wide targets of probe 9) (Homo sapiens, UniProt P49327); details: protein FASN
T5 construct: endogenous in cells; host or cells: HEK293 cell lysate

[6] = target: T6, HEK293 cell lysates (proteome-wide targets of probe 9) (Homo sapiens, UniProt Q14103); details: protein HNRNPD
T6 construct: endogenous in cells; host or cells: HEK293 cell lysate

[7] = target: T7, HEK293 cell lysates (proteome-wide targets of probe 9) (Homo sapiens, UniProt P46781); details: protein RPS9
T7 construct: endogenous in cells; host or cells: HEK293 cell lysate

[8] = target: T8, HEK293 cell lysates (proteome-wide targets of probe 9) (Homo sapiens, UniProt O15372); details: protein EIF3H
T8 construct: endogenous in cells; host or cells: HEK293 cell lysate

[9] = target: T9, HEK293 cell lysates (proteome-wide targets of probe 9) (Homo sapiens, UniProt Q13642); details: protein FHL1
T9 construct: endogenous in cells; host or cells: HEK293 cell lysate

[10] = target: T10, HEK293 cell lysates (proteome-wide targets of probe 9) (Homo sapiens, UniProt P23526); details: protein AHCY
T10 construct: endogenous in cells; host or cells: HEK293 cell lysate

[11] = target: T11, HEK293 cell lysates (proteome-wide targets of probe 9) (Homo sapiens, UniProt Q6V1X1)
T11 construct: endogenous in cells; host or cells: HEK293 cell lysate

[12] = target: T12, HEK293 cell lysates (proteome-wide targets of probe 9) (Homo sapiens, UniProt P46776); details: protein RPL27A
T12 construct: endogenous in cells; host or cells: HEK293 cell lysate

[13] = target: T13, HEK293 cell lysates (proteome-wide targets of probe 9) (Homo sapiens, UniProt P04259); details: protein KRT6B
T13 construct: endogenous in cells; host or cells: HEK293 cell lysate

[14] = target: T14, HEK293 cell lysates (proteome-wide targets of probe 9) (Homo sapiens, UniProt O43175); details: protein PHGDH
T14 construct: endogenous in cells; host or cells: HEK293 cell lysate

[15] = target: T15, HEK293 cell lysates (proteome-wide targets of probe 9) (Homo sapiens, UniProt P62805); details: protein HIST1H4A
T15 construct: endogenous in cells; host or cells: HEK293 cell lysate

[16] = target: T16, HEK293 cell lysates (proteome-wide targets of probe 9) (Homo sapiens, UniProt P37802); details: protein TAGLN2
T16 construct: endogenous in cells; host or cells: HEK293 cell lysate

[17] = target: T17, HEK293 cell lysates (proteome-wide targets of probe 9) (Homo sapiens, UniProt P55060); details: protein CSE1L
T17 construct: endogenous in cells; host or cells: HEK293 cell lysate

[18] = target: T18, HEK293 cell lysates (proteome-wide targets of probe 9) (Homo sapiens, UniProt P36578); details: protein RPL4
T18 construct: endogenous in cells; host or cells: HEK293 cell lysate

[19] = target: T19, HEK293 cell lysates (proteome-wide targets of probe 9) (Homo sapiens, UniProt P83731); details: protein RPL24
T19 construct: endogenous in cells; host or cells: HEK293 cell lysate

[20] = target: T20, HEK293 cell lysates (proteome-wide targets of probe 9) (Homo sapiens, UniProt P50990); details: protein CCT8
T20 construct: endogenous in cells; host or cells: HEK293 cell lysate

[21] = target: T21, HEK293 cell lysates (proteome-wide targets of probe 9) (Homo sapiens, UniProt P23396); details: protein RPS3
T21 construct: endogenous in cells; host or cells: HEK293 cell lysate

[22] = target: T22, HEK293 cell lysates (proteome-wide targets of probe 9) (Homo sapiens, UniProt P32119); details: protein PRDX2
T22 construct: endogenous in cells; host or cells: HEK293 cell lysate

[23] = target: T23, HEK293 cell lysates (proteome-wide targets of probe 9) (Homo sapiens, UniProt P23528); details: protein CFL1
T23 construct: endogenous in cells; host or cells: HEK293 cell lysate

[24] = target: T24, HEK293 cell lysates (proteome-wide targets of probe 9) (Homo sapiens, UniProt Q14697); details: protein GANAB
T24 construct: endogenous in cells; host or cells: HEK293 cell lysate

[25] = target: T25, HEK293 cell lysates (proteome-wide targets of probe 9) (Homo sapiens, UniProt P60842); details: protein EIF4A1
T25 construct: endogenous in cells; host or cells: HEK293 cell lysate

[26] = target: T26, HEK293 cell lysates (proteome-wide targets of probe 9) (Homo sapiens, UniProt P11586); details: protein MTHFD1
T26 construct: endogenous in cells; host or cells: HEK293 cell lysate

[27] = target: T27, HEK293 cell lysates (proteome-wide targets of probe 9) (Homo sapiens, UniProt P00558); details: protein PGK1
T27 construct: endogenous in cells; host or cells: HEK293 cell lysate

[28] = target: T28, HEK293 cell lysates (proteome-wide targets of probe 9) (Homo sapiens, UniProt P49368); details: protein CCT3
T28 construct: endogenous in cells; host or cells: HEK293 cell lysate

[29] = target: T29, HEK293 cell lysates (proteome-wide targets of probe 9) (Homo sapiens, UniProt P62280); details: protein RPS11
T29 construct: endogenous in cells; host or cells: HEK293 cell lysate

[30] = target: T30, HEK293 cell lysates (proteome-wide targets of probe 9) (Homo sapiens, UniProt P09651); details: protein HNRNPA1
T30 construct: endogenous in cells; host or cells: HEK293 cell lysate

[31] = target: T31, HEK293 cell lysates (proteome-wide targets of probe 9) (Homo sapiens, UniProt Q02790); details: protein FKBP4
T31 construct: endogenous in cells; host or cells: HEK293 cell lysate

[32] = protein DPP8 (Dipeptidyl peptidase 8)

T11 sequence (Q6V1X1 whole entry): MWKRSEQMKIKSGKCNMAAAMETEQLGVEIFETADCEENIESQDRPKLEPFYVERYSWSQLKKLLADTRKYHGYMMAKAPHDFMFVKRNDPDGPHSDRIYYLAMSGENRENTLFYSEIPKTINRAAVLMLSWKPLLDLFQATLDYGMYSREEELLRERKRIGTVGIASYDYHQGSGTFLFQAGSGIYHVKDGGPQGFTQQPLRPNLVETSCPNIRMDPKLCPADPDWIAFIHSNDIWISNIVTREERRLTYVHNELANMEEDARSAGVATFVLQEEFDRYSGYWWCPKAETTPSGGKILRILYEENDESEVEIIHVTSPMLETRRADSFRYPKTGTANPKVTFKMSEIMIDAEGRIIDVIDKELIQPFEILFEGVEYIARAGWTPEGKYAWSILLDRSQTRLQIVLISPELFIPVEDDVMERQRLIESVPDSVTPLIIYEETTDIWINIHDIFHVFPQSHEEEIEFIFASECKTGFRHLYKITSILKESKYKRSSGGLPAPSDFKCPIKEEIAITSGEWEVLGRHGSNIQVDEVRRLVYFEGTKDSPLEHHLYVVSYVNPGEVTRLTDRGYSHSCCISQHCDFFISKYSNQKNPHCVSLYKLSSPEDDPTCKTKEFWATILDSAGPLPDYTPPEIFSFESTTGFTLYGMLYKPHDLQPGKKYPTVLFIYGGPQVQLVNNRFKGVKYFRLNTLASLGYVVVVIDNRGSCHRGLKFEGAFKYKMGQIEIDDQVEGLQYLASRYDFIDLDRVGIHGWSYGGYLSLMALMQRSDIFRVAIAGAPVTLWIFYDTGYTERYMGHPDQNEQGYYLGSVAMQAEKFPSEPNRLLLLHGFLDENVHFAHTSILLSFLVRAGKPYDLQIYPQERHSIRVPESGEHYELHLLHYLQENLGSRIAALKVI
T30 sequence (P09651 whole entry): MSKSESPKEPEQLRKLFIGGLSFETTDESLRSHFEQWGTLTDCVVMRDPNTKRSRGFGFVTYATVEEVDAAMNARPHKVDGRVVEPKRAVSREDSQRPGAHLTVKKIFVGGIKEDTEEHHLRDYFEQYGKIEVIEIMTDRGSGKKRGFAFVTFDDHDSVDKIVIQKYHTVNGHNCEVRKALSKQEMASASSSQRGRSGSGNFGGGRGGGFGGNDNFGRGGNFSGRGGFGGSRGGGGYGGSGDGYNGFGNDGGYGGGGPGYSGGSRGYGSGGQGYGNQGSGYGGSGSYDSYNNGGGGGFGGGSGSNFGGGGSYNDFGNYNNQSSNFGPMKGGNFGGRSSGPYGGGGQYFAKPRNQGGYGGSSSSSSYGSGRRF
T8 sequence (O15372 whole entry): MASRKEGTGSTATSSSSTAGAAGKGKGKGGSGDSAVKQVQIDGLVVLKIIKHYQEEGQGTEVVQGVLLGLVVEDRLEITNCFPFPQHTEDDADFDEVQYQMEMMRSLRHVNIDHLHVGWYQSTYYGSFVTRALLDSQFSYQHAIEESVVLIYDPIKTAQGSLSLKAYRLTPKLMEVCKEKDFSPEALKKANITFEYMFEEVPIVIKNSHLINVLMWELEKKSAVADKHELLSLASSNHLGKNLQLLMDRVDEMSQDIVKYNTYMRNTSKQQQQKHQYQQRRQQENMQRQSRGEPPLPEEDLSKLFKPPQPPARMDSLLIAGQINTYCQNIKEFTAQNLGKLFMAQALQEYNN
T4 sequence (P07437 whole entry): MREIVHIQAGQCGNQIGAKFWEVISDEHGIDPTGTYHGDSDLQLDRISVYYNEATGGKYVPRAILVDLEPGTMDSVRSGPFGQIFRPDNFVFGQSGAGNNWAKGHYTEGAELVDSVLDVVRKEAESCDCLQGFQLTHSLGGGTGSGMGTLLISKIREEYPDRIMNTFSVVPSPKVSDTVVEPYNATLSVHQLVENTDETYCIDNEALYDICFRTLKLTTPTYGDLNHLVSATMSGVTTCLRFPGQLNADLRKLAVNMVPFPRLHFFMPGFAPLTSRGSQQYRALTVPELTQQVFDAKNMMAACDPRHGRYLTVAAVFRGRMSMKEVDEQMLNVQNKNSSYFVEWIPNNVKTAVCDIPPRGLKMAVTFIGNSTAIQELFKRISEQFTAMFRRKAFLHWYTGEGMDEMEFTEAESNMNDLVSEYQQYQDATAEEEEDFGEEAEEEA
T6 sequence (Q14103 whole entry): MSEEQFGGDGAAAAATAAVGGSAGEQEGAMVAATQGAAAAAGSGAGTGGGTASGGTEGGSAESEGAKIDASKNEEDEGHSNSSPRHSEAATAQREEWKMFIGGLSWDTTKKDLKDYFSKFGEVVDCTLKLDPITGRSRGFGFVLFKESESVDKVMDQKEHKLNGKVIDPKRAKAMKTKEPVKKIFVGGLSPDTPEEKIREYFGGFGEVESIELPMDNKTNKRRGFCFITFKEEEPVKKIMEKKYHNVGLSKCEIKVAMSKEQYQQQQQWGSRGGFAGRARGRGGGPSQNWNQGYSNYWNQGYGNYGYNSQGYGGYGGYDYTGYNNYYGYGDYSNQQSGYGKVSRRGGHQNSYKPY
T14 sequence (O43175 whole entry): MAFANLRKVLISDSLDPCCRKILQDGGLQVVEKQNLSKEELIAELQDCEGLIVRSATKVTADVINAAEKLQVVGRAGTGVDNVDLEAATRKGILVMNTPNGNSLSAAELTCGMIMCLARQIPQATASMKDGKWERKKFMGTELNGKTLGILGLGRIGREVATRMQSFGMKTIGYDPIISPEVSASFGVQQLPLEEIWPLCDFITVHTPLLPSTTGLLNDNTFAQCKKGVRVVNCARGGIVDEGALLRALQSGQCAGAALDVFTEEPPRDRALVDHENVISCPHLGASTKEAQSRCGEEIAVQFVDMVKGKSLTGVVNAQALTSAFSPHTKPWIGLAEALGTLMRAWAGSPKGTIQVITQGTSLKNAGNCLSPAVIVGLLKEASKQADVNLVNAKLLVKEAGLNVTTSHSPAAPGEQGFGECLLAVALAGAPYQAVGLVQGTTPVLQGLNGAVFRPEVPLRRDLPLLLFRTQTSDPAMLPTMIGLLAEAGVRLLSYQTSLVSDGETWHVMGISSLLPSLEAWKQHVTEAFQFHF
T22 sequence (P32119 whole entry): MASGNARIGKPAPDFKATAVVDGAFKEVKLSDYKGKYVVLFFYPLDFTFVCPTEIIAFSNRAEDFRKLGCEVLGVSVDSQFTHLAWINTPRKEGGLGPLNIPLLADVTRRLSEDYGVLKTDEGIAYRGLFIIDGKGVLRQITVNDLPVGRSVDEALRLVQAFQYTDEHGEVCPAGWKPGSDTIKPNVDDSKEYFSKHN
T20 sequence (P50990 whole entry): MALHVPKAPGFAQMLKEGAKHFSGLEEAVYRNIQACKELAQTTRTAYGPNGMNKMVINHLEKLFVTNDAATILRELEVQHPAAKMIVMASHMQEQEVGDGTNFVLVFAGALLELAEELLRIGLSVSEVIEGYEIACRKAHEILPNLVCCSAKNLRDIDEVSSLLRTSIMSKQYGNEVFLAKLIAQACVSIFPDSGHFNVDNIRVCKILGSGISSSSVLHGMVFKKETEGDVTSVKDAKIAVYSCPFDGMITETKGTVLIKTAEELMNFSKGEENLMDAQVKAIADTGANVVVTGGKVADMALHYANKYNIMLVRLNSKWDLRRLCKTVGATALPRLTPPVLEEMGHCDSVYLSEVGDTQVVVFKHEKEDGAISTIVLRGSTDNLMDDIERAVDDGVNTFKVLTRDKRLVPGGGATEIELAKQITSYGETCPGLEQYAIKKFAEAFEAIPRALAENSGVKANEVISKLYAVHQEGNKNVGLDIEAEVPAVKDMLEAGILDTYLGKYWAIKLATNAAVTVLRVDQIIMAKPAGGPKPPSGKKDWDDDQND
T13 sequence (P04259 whole entry): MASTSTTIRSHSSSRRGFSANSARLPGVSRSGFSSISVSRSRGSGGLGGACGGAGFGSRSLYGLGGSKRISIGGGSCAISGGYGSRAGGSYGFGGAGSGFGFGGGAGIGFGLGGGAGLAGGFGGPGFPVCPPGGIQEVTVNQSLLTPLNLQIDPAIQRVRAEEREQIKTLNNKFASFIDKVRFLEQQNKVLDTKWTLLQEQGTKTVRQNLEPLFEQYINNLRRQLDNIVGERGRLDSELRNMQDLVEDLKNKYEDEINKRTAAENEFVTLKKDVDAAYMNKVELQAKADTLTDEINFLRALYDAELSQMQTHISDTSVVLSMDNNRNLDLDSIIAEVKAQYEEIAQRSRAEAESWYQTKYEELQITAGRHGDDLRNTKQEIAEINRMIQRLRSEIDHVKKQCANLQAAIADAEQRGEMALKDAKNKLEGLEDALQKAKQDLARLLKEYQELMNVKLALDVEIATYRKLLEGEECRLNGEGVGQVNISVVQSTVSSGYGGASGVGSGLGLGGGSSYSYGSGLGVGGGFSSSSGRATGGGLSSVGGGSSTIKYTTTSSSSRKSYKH
T16 sequence (P37802 whole entry): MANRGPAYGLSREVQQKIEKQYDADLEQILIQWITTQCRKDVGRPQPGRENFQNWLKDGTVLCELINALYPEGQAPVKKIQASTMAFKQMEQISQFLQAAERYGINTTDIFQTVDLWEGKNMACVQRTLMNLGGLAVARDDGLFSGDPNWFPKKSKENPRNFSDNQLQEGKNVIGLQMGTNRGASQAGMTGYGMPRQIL
T9 sequence (Q13642 whole entry): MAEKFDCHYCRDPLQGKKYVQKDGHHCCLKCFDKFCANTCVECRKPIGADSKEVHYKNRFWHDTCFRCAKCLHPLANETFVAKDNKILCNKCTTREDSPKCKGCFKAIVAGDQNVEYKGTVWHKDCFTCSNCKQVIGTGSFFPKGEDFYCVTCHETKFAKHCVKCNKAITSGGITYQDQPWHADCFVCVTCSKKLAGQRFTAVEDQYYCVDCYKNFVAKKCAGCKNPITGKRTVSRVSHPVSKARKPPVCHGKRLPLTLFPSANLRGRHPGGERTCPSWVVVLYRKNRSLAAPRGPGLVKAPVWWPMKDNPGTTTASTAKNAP

CCCCCc1ccc(SCCP(=O)(OCC)N2CCC[C@H](N)C2=O)cc1.O=C(O)C(F)(F)F (stereo partly shown) [Compound 16]
Log2-fold change (16/9) [1]: 0.3661
Log2-fold change (16/9) [2]: -0.7288
Log2-fold change (16/9) [3]: -1.003
Log2-fold change (16/9) [4]: -2.286
Log2-fold change (16/9) [5]: -0.4881
Log2-fold change (16/9) [6]: -0.4231
Log2-fold change (16/9) [7]: 0.2438
Log2-fold change (16/9) [8]: -0.06894
Log2-fold change (16/9) [9]: 0.2096
Log2-fold change (16/9) [10]: -0.05498
DPP8 identification after pre-incubation with competitor ([11]; labeled with 9, pre-incubated with competitor): peptides of DPP8 were identified
Log2-fold change (16/9) [11, 32]: -1.618
Log2-fold change (16/9) [12]: 0.01928
Log2-fold change (16/9) [13]: 1.89
Log2-fold change (16/9) [14]: -0.3162
Log2-fold change (16/9) [15]: 0.1177
Log2-fold change (16/9) [16]: -0.3112
Log2-fold change (16/9) [17]: 0.04384
Log2-fold change (16/9) [18]: 0.07056
Log2-fold change (16/9) [19]: 1.34
Log2-fold change (16/9) [20]: -0.5032
Log2-fold change (16/9) [21]: -0.6746
Log2-fold change (16/9) [22]: 1.348
Log2-fold change (16/9) [23]: -0.1396
Log2-fold change (16/9) [24]: 0.1876
Log2-fold change (16/9) [25]: -1.788
Log2-fold change (16/9) [26]: -0.2924
Log2-fold change (16/9) [27]: 0.07234
Log2-fold change (16/9) [28]: -1.0355
Log2-fold change (16/9) [29]: 0.1367
Log2-fold change (16/9) [30]: -1.553
Log2-fold change (16/9) [31]: -0.2833

C#CCCCP(=O)(OCC)N1CCCC(N)C1=O.O=C(O)C(F)(F)F (mixture of isomers) [Compound 9]
Log2-fold change (9/DMSO) [1]: 0.2377
Log2-fold change (9/DMSO) [2]: -0.2704
Log2-fold change (9/DMSO) [3]: 1.2987
Log2-fold change (9/DMSO) [4]: 1.741
Log2-fold change (9/DMSO) [5]: 0.4818
Log2-fold change (9/DMSO) [6]: 1.662
Log2-fold change (9/DMSO) [7]: 0.8119
Log2-fold change (9/DMSO) [8]: 0.7356
Log2-fold change (9/DMSO) [9]: -0.4077
Log2-fold change (9/DMSO) [10]: -0.3328
Initial LFQ intensity of DPP8 (log2-transformed) ([11]; labeled with 9, single replicates): 21.9345 and 21.2153 and 19.9933
Log2-fold change (9/DMSO) [11, 32]: 1.124
Log2-fold change (9/DMSO) [12]: -2.372
Log2-fold change (9/DMSO) [13]: -0.8544
Log2-fold change (9/DMSO) [14]: 0.8847
Log2-fold change (9/DMSO) [15]: -0.9831
Log2-fold change (9/DMSO) [16]: 0.4985
Log2-fold change (9/DMSO) [17]: 0.5768
Log2-fold change (9/DMSO) [18]: -0.3595
Log2-fold change (9/DMSO) [19]: -0.3893
Log2-fold change (9/DMSO) [20]: 0.4828
Log2-fold change (9/DMSO) [21]: 0.2732
Log2-fold change (9/DMSO) [22]: 0.06438
Log2-fold change (9/DMSO) [23]: 0.4225
Log2-fold change (9/DMSO) [24]: 0.2816
Log2-fold change (9/DMSO) [25]: 0.03837
Log2-fold change (9/DMSO) [26]: 0.4766
Log2-fold change (9/DMSO) [27]: -0.05307
Log2-fold change (9/DMSO) [28]: 1.2654
Log2-fold change (9/DMSO) [29]: -0.5072
Log2-fold change (9/DMSO) [30]: 0.5741
Log2-fold change (9/DMSO) [31]: 0.6761
